One assay concerns the target human cyclin E-CDK2 (Homo sapiens, UniProt P24941). The assay can be described thus: FlashPlate kinase assay, cyclin E-CDK2. The format is biochemical. As to conditions: Rb protein substrate, 1 μM ATP, 33P-ATP, 30 minutes room temperature. The method, then: To determine inhibition of Cdk4, Cdk2 and Cdk1 activity, kinase assays were conducted using FlashPlate™ assays (NEN™-Life Science Products). FlashPlate assays were performed using recombinant human cyclin B-CDK1, human cyclin E-CDK2 or human cyclin D1-CDK4 complexes. GST-cyclinE (GST-cycE), CDK2, GST-cyclinB (GST-cycB), CDK1, GST-CDK4 and cyclin D1 (cycD1) cDNA clones in baculovirus vectors were provided by Dr. W. Harper at the Baylor College of Medicine, Houston, Tex. Proteins were co-expressed in High Five™ insect cells and the complex was purified on glutathione Sepharose resin (Pharmacia, Piscataway, N.J.) as previously described (Harper, J. W. et al. Cell 1993, 75, 805–816). A 6×-Histidine tagged truncated form of retinoblastoma (Rb) protein (amino acid 386–928) was used as the substrate for the cycD1-CDK4, cycB-CDK1 and the cycE-CDK2 assays (the expression plasmid was provided by Dr. Veronica Sullivan, Department of Molecular Virology, Roche Research Centre, Welwyn Garden City, United Kingdom). The Rb protein is a natural substrate for phosphorylation by CDK4, CDK2 and CDK1 (see Herwig and Strauss Eur. J. Biochem. Vol. 246 (1997) pp. 581–601 and the references cited therein).
The expression of the 62Kd protein was under the control of an IPTG inducible promoter in an M15 E. coli strain. Cells were lysed by sonication and purification was carried out by binding lysates at pH 8.0 to a Ni-chelated agarose column pretreated with 1 mM imidazole. The resin was then washed several times with incrementally decreasing pH buffers to pH 6.0, and eluted with 500 mM imidazole. Eluted protein was dialysed against 20 mM HEPES pH 7.5, 30% glycerol, 200 mM NaCl, and 1 mM DTT. Purified Rb fusion protein stocks were quantitated for protein concentration, aliquoted, and stored at −70° C.
For all three kinase assays reported herein, 96-well FlashPlates were coated with Rb protein at 10 μg/ml, using 100 μl per well. Plates were incubated at 4° C. overnight or at room temperature for 3 hours on a shaker. To control for nonspecific phosphorylation, one row of wells was coated with 100 μl/well coating buffer (20 mM HEPES, 0.2 M NaCl). Plates were then washed twice with wash buffer (0.01% Tween 20 in phosphate-buffered saline). Compounds to be tested (“test compounds”) were added to the wells at 5× final concentration. Reactions were initiated by immediate addition of 40 μl reaction mix (25 mM HEPES, 20 mM MgCl2, 0.002% Tween 20, 2 mM DTT, 1 μM ATP, 4 nM ^33P-ATP) and a sufficient amount of enzyme to give counts that were at least 10-fold above background. Plates were incubated at room temperature on a shaker for 30 minutes. Plates were washed four times with the wash buffer, sealed, and counted on the TopCount scintillation counter (Packard Instrument Co., Downers Grove, Ill.]. The percent inhibition of Rb phosphorylation, which is a measure of the inhibition of CDK activity, was determined according to the following formula:
[formula] where “test compound” refers to the average counts per minute of the test duplicates, “nonspecific” refers to the average counts per minute when no CyclinD/Cdk4, etc., was added, and “total” refers to the average counts per minute when no compound was added. The IC50 value is the concentration of test compound that reduces by 50% the protein-kinase induced incorporation of the radiolabel under the test conditions described.

Assay [1] has as its system HCT116, a colorectal carcinoma cell line. The assay can be described thus: Tetrazolium dye (MTT) proliferation assay. Type of assay: cell-based. As to conditions: Homo sapiens, HCT-116; HCT116 cells, inhibition of cell proliferation. The method, then: Proliferation was evaluated by the tetrazolium dye assay according to the procedure of Denizot and Lang (Denizot, F. and Lang, R. J Immunol Methods 1986, 89, 271–277). The cell line used was HCT116, a colorectal carcinoma cell line obtained from the American Type Cell Culture Collection (ATCC; Rockville, Md.). The cells were grown in McCoy's 5A medium supplemented with 10% FCS and L-glutamine.
Cells were plated at the appropriate seeding density to give logarithmic growth over the course of the assay in a 96-well tissue culture plate. Plates were incubated overnight at 37° C. in a humidified incubator with 5% CO2. The next day, test compounds were serially diluted to four times the final concentration in the appropriate medium containing 1.2% DMSO. One-fourth final volume of each dilution was added in duplicate to the plates containing cells. The same volume of 1.2% DMSO in medium was added to a row of “control wells” such that the final concentration of DMSO in each well was 0.3%. Wells to which no cells were added served as the “blank.” Wells to which no inhibitor was added served as “no inhibitor control.” The plates were) returned to the incubator, and at set time points (determined by their growth curves) plates were analyzed as described below.
3-(4,5-dimethylthiazole-2-yl)-2,5-diphenyl-2H-tetrazolium bromide (thiazolyl blue; MTT; Sigma) was added to each well to yield a final concentration of 1 mg/ml. Plates were returned to the incubator for 2.5–3 hours at 37° C. The MTT-containing medium was removed and the resulting formazan metabolite was solubilized in 100% ethanol with shaking for 15 minutes at room temperature. Absorbance readings were taken in a microtiter plate reader (Dynatech and Molecular Devices plate readers were used interchangeably) at a wavelength of 570 nm with a 650 nm reference. Percent inhibition (% INH) is calculated by subtracting the absorbance of the blank well from all wells, then subtracting the ratio of the average absorbance of each test duplicate (SAVE) by the average of the controls (CAVE) from 1.00. The final number is then multiplied by 100 (% INH=(1.00−SAVE/CAVE)×100). The concentration at which 50% inhibition of cell proliferation is obtained (the IC50) is determined from the linear regression of a plot of the logarithm of the concentration versus percent inhibition.

A further assay has as its target human cyclin D1-CDK4 (Homo sapiens, UniProt P11802). The assay is described as follows: FlashPlate kinase assay, cyclin D1-CDK4. The format is biochemical. As to conditions: Rb protein substrate, 1 μM ATP, 33P-ATP, 30 minutes room temperature; read-out: CDK4 IC50.
The next assay deals with human cyclin B-CDK1 (Homo sapiens, UniProt P06493). The assay is described as follows: FlashPlate kinase assay, cyclin B-CDK1. The format is biochemical. As to conditions: Rb protein substrate, 1 μM ATP, 33P-ATP, 30 minutes room temperature.
Chain of human cyclin B-CDK1 (P06493 whole entry): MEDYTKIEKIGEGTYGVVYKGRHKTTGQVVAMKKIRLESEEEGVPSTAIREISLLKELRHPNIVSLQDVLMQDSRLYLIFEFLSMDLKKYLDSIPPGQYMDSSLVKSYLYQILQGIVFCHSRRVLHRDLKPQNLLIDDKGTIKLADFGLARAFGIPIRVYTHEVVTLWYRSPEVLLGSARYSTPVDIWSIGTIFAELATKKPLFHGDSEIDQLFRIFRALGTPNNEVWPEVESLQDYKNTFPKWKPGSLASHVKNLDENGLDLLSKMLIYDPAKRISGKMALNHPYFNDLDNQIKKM
Chain of human cyclin B-CDK1 (P14635 whole entry partner): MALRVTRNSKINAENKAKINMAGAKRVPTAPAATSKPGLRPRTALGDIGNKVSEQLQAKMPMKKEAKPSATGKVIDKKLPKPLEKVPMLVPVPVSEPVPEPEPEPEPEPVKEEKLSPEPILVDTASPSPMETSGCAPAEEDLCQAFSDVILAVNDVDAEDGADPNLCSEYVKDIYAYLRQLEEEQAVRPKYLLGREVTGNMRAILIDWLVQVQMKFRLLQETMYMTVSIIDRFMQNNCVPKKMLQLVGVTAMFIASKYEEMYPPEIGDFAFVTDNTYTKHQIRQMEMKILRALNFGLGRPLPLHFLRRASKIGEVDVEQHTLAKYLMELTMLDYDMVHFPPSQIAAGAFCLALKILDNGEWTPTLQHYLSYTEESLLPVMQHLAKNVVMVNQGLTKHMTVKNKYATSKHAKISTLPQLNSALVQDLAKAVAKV

Chain of human cyclin D1-CDK4 (P11802 whole entry): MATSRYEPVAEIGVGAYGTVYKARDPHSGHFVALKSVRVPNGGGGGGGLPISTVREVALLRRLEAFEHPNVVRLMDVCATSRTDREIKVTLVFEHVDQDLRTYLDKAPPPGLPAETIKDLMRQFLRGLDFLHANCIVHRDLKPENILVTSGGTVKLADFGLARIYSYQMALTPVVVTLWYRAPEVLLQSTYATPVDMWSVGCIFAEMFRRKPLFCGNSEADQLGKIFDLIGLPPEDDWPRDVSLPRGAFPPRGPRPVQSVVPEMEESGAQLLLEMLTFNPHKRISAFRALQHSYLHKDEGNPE
Chain of human cyclin D1-CDK4 (P24385 whole entry partner): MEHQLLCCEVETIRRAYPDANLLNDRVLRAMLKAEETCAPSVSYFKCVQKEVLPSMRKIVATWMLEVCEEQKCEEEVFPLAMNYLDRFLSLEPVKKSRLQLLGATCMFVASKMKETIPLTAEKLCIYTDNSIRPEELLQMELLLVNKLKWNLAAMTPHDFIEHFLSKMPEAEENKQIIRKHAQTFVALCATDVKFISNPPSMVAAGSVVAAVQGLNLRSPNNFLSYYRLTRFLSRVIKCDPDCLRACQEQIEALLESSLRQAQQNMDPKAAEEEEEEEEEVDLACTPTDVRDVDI

For the molecule `COc1ccc(C(=O)c2sc(Nc3ccc(N4CCC(N5CCCC5)CC4)cc3)nc2N)cc1F` [Example 23], the IC50 is 2890 nM against human cyclin E-CDK2, 1750 nM in assay [1], 12 nM at human cyclin D1-CDK4 and 1280 nM on human cyclin B-CDK1.

In the case of `Nc1nc(Nc2ccc(N3CCC(N4CCCC4)CC3)cc2)sc1C(=O)c1cccc(F)c1` [Example 24, {4-Amino-2-[4-(4-pyrrolidin-1-yl-piperidin-1-yl)-phenylamino]-thiazol-5-yl}-(3-fluoro-phenyl)-methanone], the IC50 against human cyclin E-CDK2 came out at 860 nM; in assay [1], 1220 nM; at human cyclin D1-CDK4, 32 nM; against human cyclin B-CDK1, 270 nM.

Turning to `Nc1nc(Nc2ccc(N3CCC(N4CCCC4)CC3)cc2)sc1C(=O)c1ccc2c(c1)OCO2` [Example 25, {4-Amino-2-[4-(4-pyrrolidin-1-yl-piperidin-1-yl)-phenylamino]-thiazol-5-yl}-benzo[1,3]dioxol-5-yl-methanone], the half-maximal inhibitory concentration (IC50) against human cyclin E-CDK2 turned out to be 2890 nM; in assay [1] it was 2000 nM; on human cyclin D1-CDK4, 17 nM; against human cyclin B-CDK1, 216 nM.

For the molecule `Nc1nc(Nc2ccc(N3CCC(N4CCCC4)CC3)cc2)sc1C(=O)c1ccc2c(c1)OCCO2` [Example 26, {4-Amino-2-[4-(4-pyrrolidin-1-yl-piperidin-1-yl)-phenylamino]-thiazol-5-yl}-(2,3-dihydro-benzo[1,4]dioxin-6-yl)-methanone], the IC50 against human cyclin E-CDK2 came to 4250 nM; in assay [1], 2800 nM; on human cyclin D1-CDK4 it was 5 nM; at human cyclin B-CDK1, 1060 nM.

With `COc1cccc(C(=O)c2sc(Nc3ccc(N4CCC(N5CCCC5)CC4)cc3)nc2N)c1` [Example 27], the IC50 against human cyclin E-CDK2 was 3490 nM; in assay [1], 1850 nM; on human cyclin D1-CDK4, 17 nM; against human cyclin B-CDK1, 1060 nM.

`Nc1nc(Nc2ccc(N3CCC(N4CCCCC4)CC3)cc2)sc1C(=O)c1cccc(F)c1` [Example 30, [4-Amino-2-(4-[1,4′]bipiperidinyl-1′-yl-phenylamino)-thiazol-5-yl]-(3-fluoro-phenyl)-methanone]: the IC50 at human cyclin E-CDK2 amounted to 545 nM; in assay [1], 840 nM; on human cyclin D1-CDK4, 14 nM; at human cyclin B-CDK1 it was 176 nM.

As for `COc1ccc(C(=O)c2sc(Nc3ccc(N4CCC(N5CCCCC5)CC4)cc3)nc2N)cc1F` [Example 31, [4-Amino-2-(4-[1,4′]bipiperidinyl-1′-yl-phenylamino)-thiazol-5-yl]-(3-fluoro-4-methoxy-phenyl)-methanone], the half-maximal inhibitory concentration (IC50) on human cyclin E-CDK2 was 4160 nM; in assay [1], 3290 nM; on human cyclin D1-CDK4, 28 nM; against human cyclin B-CDK1, 1720 nM.

As to `Nc1nc(Nc2ccc(N3CCC(N4CCCCC4)CC3)cc2)sc1C(=O)c1ccc2c(c1)OCO2` [Example 32, [4-Amino-2-(4-[1,4′]bipiperidinyl-1′-yl-phenylamino)-thiazol-5-yl]-benzo[1,3]dioxol-5-yl-methanone], the IC50 was 5740 nM on human cyclin E-CDK2, 6640 nM in assay [1], 29 nM on human cyclin D1-CDK4 and 1910 nM against human cyclin B-CDK1.

For `Nc1nc(Nc2ccc(N3CCC(N4CCCCC4)CC3)cc2)sc1C(=O)c1ccc2c(c1)OCCO2` [Example 33, [4-Amino-2-(4-[1,4′]bipiperidinyl-1′-yl-phenylamino)-thiazol-5-yl]-(2,3-dihydro-benzo[1,4]dioxin-6-yl)-methanone], the IC50 is 4950 nM against human cyclin E-CDK2, 1680 nM in assay [1], 9 nM on human cyclin D1-CDK4 and 950 nM at human cyclin B-CDK1.

`COc1cccc(C(=O)c2sc(Nc3ccc(N4CCC(N5CCCCC5)CC4)cc3)nc2N)c1` [Example 34, [4-Amino-2-(4-[1,4′]bipiperidinyl-1′-yl-phenylamino)-thiazol-5-yl]-(3-methoxy-phenyl)-methanone]: the concentration for half-maximal inhibition (IC50) against human cyclin E-CDK2 was 952 nM; in assay [1], 8 nM; at human cyclin D1-CDK4, 3640 nM; against human cyclin B-CDK1 it was 1680 nM.

For the molecule `Nc1nc(Nc2ccc(N3CCC(N4CCCC(O)C4)CC3)cc2)sc1C(=O)c1cccc(F)c1` (stereo not shown) [Example 35, {4-Amino-2-[4-(3-hydroxy-[1,4′]bipiperidinyl-1′-yl)-phenylamino]-thiazol-5-yl}-(3-fluoro-phenyl)-methanone], the IC50 against human cyclin E-CDK2 was found to be 120 nM; in assay [1], 18 nM; on human cyclin D1-CDK4, 1090 nM; against human cyclin B-CDK1 it was 740 nM.

With `Nc1nc(Nc2ccc(N3CCC(N4CCCC(O)C4)CC3)cc2)sc1C(=O)c1ccc2c(c1)OCCO2` (stereo not shown) [Example 38, {4-Amino-2-[4-(3-hydroxy-[1,4′]bipiperidinyl-1′-yl)-phenylamino]-thiazol-5-yl}-(2,3-dihydro-benzo[1,4]dioxin-6-yl)-methanone], the 50% inhibitory concentration (IC50) in assay [1] worked out at 15 nM; at human cyclin D1-CDK4, 5260 nM; at human cyclin B-CDK1, 4050 nM.

For `Cc1cccc(C(=O)c2sc(Nc3ccc(N4CCC(N(C)C)CC4)cc3)nc2N)c1` [Example 110, {4-Amino-2-[4-(4-dimethylamino-piperidin-1-yl)-phenylamino]-thiazol-5-yl}-tolyl-methanone], the 50% inhibitory concentration (IC50) was determined as 2700 nM in assay [1], 25 nM at human cyclin D1-CDK4 and 1990 nM against human cyclin B-CDK1.

For `Cc1cccc(C(=O)c2sc(Nc3ccc(N4CCC(N5CCCCC5)CC4)cc3)nc2N)c1` [Example 111, [4-Amino-2-(4-[1,4′]bipiperidinyl-1′-yl-phenylamino)-thiazol-5-yl]-tolyl-methanone], the IC50 in assay [1] turned out to be 1610 nM; at human cyclin D1-CDK4 it was 25 nM.

Regarding `CCNC1CCN(c2ccc(Nc3nc(N)c(C(=O)c4cccc(F)c4)s3)cc2)CC1` [Example 137, {4-Amino-2-[4-(4-ethylamino-piperidin-1-yl)-phenylamino]-thiazol-5-yl}-(3-fluoro-phenyl)-menthanone], the IC50 was found to be 1400 nM in assay [1], 32 nM at human cyclin D1-CDK4 and 385 nM on human cyclin B-CDK1.

Source of the values: US7211576B2, “Diaminothiazoles” (Hoffmann-La Roche Inc., priority 2004, dated 2007).
